In the assay the target is T1, mouse FPR2 (Mus musculus, UniProt O88536).
T1 construct: expressed in transfected cells; host or cells: HEK 293
T1 sequence (O88536 1-351): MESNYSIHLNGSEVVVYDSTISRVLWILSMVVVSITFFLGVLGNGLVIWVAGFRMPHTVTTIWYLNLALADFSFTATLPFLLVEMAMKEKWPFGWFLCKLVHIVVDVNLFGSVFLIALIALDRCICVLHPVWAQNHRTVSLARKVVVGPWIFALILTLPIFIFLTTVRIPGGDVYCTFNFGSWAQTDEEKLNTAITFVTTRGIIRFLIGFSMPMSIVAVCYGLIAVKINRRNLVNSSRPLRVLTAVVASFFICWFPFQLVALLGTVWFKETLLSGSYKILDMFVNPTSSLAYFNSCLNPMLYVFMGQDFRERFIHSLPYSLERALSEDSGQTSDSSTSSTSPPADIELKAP
As to the kind of experiment: Calcium flux in FPR2-transfected HEK 293 cells. The assay is classed as cell-based. The settings on record: 250 ng/ml pertussis toxin for 4 h. The text has this:
Cell Lines. Construction of human embryonic kidney (HEK) 293 cell lines expressing human formylpeptide receptor (FPR), human formylpeptide receptor-like 1 receptor (FPRL1R), mouse FPR, mouse FPR2, mouse lipoxin A4 receptor (encoded by Fpr-rs1), a mouse orphan receptor encoded by Fpr-rs3, and human CCR5 and CX3CR1 has been previously described (Hartt J. K. et al. 1999 J Exp Med 190:741-747; Combadiere C. et al. 1996 J Leukocyte Biol 60:147-152; Combadiere C. et al. 1998 J Biol Chem 273:23799-23804; Gao J.-L. et al. 1998 Genomics 51:270-276). Fpr-rs1 and Fpr-rs3 were tested because of their high structural similarity to the known formylpeptide receptors and because they are also expressed in phagocytes (Gao J.-L. et al. 1998 Genomics 51:270-276). […]
Calcium Flux Analysis. […] Data were recorded every 200 ms as the relative ratio of fluorescence emitted at 510 nm following sequential excitation at 340 and 380 nm. The following ligands were evaluated: Aβ (nonfibrillated, human residues 1-42; California Peptide Research; Napa, Calif.), fMet-Leu-Phe (fMLF; Sigma), ATP (Life Technologies), and the chemokines RANTES (regulated upon activation normal T-cell expressed and secreted), SDF-1 (stromal cell-derived factor-1), 1-309, fractalkine, MIP-1α (macrophage inflammatory protein-1α), and KC (Peprotech, Rocky Hill, N.J.). […]
(A change in cytosolic calcium serves as a functional read-out for many receptors and channels.)

This note sets out measurements from patent US20050130890A1, “Amyloid beta is a ligand for FPR class receptors” (priority 2001, published 2005).

Consider pertussis toxin, for which the “effect of pretreatment on Aβ calcium flux signaling” value is recorded as “completely blocked”.
